From paper PMC9841765 (Archives of biochemistry and biophysics, 2020) come the findings set out here.

Some targets named below: SaNFeoB (Staphylococcus aureus, UniProt Q5HD01); LmNFeoB (Listeria monocytogenes, UniProt Q8Y5F9); PaNFeoB (Pseudomonas aeruginosa, UniProt Q9HW43); StNFeoB (Salmonella enterica, UniProt P74884).
Test in all cases: malachite green phosphate release
Common to all, as to type: biochemical
Holding throughout (conditions): pH 8.0, 5 mM MgCl2, 200 mM KCl, 37 °C

Another test has as its target T1, SmNFeoB (Streptococcus mutans, UniProt Q8DVC3).
T1 sequence (Q8DVC3 1-273): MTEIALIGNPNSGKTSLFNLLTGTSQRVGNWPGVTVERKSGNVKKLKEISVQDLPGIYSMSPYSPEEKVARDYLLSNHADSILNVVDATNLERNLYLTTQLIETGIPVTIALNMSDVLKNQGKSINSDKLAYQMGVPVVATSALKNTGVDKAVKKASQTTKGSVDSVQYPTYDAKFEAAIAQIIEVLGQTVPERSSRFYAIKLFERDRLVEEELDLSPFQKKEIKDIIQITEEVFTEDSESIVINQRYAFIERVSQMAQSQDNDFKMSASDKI

In another test the target is T2, BcNFeoB (Bacillus cereus, UniProt Q72YQ6).
T2 sequence (Q72YQ6 1-269): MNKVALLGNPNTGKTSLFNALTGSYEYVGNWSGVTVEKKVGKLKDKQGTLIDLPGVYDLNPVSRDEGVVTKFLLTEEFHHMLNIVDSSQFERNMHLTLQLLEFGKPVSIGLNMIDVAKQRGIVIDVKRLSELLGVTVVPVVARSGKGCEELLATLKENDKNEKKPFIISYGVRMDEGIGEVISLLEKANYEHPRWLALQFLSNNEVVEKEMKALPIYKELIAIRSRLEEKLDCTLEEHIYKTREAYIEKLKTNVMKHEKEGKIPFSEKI

In another test the target is T3, EcNFeoB (Escherichia coli, UniProt P33650).
T3 sequence (P33650 1-274): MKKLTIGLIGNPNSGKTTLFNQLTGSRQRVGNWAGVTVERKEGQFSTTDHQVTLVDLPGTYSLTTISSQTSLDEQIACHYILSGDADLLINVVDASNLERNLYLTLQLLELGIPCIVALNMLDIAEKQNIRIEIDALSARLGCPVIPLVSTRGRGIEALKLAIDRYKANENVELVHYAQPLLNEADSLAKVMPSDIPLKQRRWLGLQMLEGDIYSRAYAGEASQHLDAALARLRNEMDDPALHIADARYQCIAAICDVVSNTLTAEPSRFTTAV

Chain of SaNFeoB (Q5HD01 1-272): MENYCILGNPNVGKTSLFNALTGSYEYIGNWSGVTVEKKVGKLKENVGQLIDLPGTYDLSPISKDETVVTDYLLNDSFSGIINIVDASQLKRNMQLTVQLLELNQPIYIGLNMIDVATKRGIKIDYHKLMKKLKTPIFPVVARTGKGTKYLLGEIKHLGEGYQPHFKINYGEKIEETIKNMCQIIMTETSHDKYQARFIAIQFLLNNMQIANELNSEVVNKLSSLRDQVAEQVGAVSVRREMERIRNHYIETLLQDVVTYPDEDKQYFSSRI
Chain of StNFeoB (P74884 1-274): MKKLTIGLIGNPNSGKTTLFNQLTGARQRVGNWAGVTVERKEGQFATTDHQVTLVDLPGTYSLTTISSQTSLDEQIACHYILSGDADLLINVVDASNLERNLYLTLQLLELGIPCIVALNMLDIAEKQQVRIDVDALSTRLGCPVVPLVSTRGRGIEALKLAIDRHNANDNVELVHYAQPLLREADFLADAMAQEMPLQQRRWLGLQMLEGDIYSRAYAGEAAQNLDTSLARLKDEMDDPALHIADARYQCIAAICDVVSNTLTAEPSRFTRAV

Take `Nc1ncnc2c1ncn2[C@@H]1O[C@H](COP(=O)(O)OP(=O)(O)OP(=O)(O)O)[C@@H](O)[C@H]1O` [ATP]: the “malachite green phosphate release” value at SaNFeoB is “the NFeoB activities of S. aureus, S. mutans, and B. cereus”; on SmNFeoB, “the NFeoB activities of S. aureus, S. mutans, and B. cereus”; on LmNFeoB it was “LmNFeoB exhibited ATP hydrolysis activity similar to the activity of VcNFeoB”; on BcNFeoB it was “the NFeoB activities of S. aureus, S. mutans, and B. cereus”.

For the molecule `Nc1nc2c(ncn2[C@@H]2O[C@H](COP(=O)(O)OP(=O)(O)OP(=O)(O)O)[C@@H](O)[C@H]2O)c(=O)[nH]1` [GTP], the “malachite green phosphate release” value was “S. Typhimurium and P. aeruginosa exhibited only GTP hydrolytic activity” on PaNFeoB; “the NFeoB activities of S. aureus, S. mutans, and B. cereus” at SaNFeoB; “the NFeoB activities of S. aureus, S. mutans, and B. cereus” on SmNFeoB; “Its GTPase activity was higher than other monovalent cations” at LmNFeoB; “S. Typhimurium and P. aeruginosa exhibited only GTP hydrolytic activity” on StNFeoB; “the NFeoB activities of S. aureus, S. mutans, and B. cereus” on BcNFeoB. The “malachite green phosphate release” value on EcNFeoB is “Like E. coli, S. Typhimurium and P. aeruginosa exhibited only GTP hydrolytic activity”.
